Patent publication US11999746B2, “Compounds” (GlaxoSmithKline Intellectual Property Development Limited, priority 2014, dated 2024)
Counter-ions that a name gives are not always drawn.

biological target: T1, recombinant human Lp-PLA2 (Homo sapiens, UniProt Q13093); assay: (1b) hrThioPAF assay, recombinant human Lp-PLA2; assay type: biochemical; details: Examples 266-412 were tested here, one experiment or average of multiple experiments, read-out: rhLp-PLA2 (pIC50) (converted)
T1 sequence (Q13093 22-441): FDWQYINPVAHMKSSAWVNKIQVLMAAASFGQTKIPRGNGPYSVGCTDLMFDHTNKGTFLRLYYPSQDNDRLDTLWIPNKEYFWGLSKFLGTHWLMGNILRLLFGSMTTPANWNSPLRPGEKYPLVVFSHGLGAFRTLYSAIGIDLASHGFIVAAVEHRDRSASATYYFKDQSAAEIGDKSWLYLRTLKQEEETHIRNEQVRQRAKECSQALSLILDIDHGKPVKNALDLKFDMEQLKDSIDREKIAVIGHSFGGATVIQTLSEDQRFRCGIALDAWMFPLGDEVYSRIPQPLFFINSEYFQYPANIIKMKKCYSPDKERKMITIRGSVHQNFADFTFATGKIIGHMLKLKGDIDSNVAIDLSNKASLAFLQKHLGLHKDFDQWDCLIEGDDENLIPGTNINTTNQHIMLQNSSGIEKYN
From the text: 1-O-Hexadecyl-2-deoxy-2-thio-S-acetyl-sn-glyceryl-3-phosphorylcholine (2-thio-PAF) is a substrate for PAF-hydrolases (PAF-AH) commercially available from Cayman Chemical. Upon cleavage with PAF-AH, the free thiol is released at the sn-2 position and can then react with 7-diethylamino-3-(4′-maleimidylphenyl)-4-methylcoumarin (CPM) a thiol-reactive coumarin. This reaction (Michael addition) results in an increase in fluorescence. Inhibitors of Lp-PLA2 therefore prevent this cleavage and no fluorescent increase is observed.
The Thio-PAF assay was run as an unquenched 20 μL assay. The source plate containing the compounds to be tested was prepared by making 1:3 (by volume) serial dilution of the compounds within DMSO on 384-well microplate. Then, 5 μL of the compounds on compound source plate were transferred into 384 well Greiner 784076 (black) plates using STAR+(Hamilton) liquid dispenser. 10 μL of recombinant human Lp-PLA2 enzyme (20 pM rhLp-PLA2 in assay buffer of 50 mM HEPES, pH 7.4, 150 mM NaCl, 1 mM CHAPS) was added to each well of the plate. 5 μL of substrate comprising 40 μM 2-thio-PAF [from ethanol stock], 40 μM CPM [from a DMSO stock] and 400 μM NEM (N-ethylmaleimide) [made fresh daily in DMSO] in assay buffer (50 mM HEPES, pH 7.4, 150 mM NaCl, 1 mM CHAPS) was added to 384 well Greiner 784076 black plates. Plates were vortexed for 10 sec. The plate was covered to protect it from light and incubated for 20 min at 25° C. The plates were read for fluorescence intensity at ex: 380 nm/em: 485 nm using Envision plate reader (Perkin Elmer). Raw data were transferred to Excel software and pIC50 data, curve and QC analysis was conducted by using XL fit module in Excel.

Row | IC50 | SMILES
1 | ≤ 10 µM | O=C1CN2c3cc(NCc4ccc(F)c(F)c4)nc(=O)n3CC2CN1 (stereo not drawn) [Example E353, 7-((3,4-Difluorobenzyl)amino)-11,11a-dihydro-1H-pyrazino[1′,2′:3,4]imidazo[1,2-c]pyrimidine-3,9(2H,4H)-dione]
2 | ≤ 0.001 µM | O=c1nc(OCc2ccc(F)c(F)c2)cc2n1CC1(CCN(S(=O)(=O)C3CC3)CC1)N2 [Example 410, 1′-(Cyclopropylsulfonyl)-7-((3,4-difluorobenzyl)oxy)-1H-spiro[imidazo[1,2-c]pyrimidine-2,4′-piperidin]-5(3H)-one]
3 | ≤ 10 µM | Cn1cc(Oc2c(F)cc(COc3cc4n(c(=O)n3)CC3(COC3)N4)cc2F)cn1 [Example E393]
4 | ≤ 10 µM | CS(=O)(=O)N1CCN2c3cc(NCc4ccc(F)c(C#N)c4)nc(=O)n3CC2C1 (stereo not drawn) [Example E312, 2-Fluoro-5-(((2-(methylsulfonyl)-9-oxo-2,3,4,9,11,11a-hexahydro-1H-pyrazino[1′,2′:3,4]imidazo[1,2-c]pyrimidin-7-yl)amino)methyl)benzonitrile]
5 | ≤ 10 µM | CCOC(=O)C(C)N1CCN2c3cc(OCc4ccc(F)c(F)c4)nc(=O)n3CC2C1 (single isomer, unassigned) [Example E326, Ethyl 2-(7-((3,4-difluorobenzyl)oxy)-9-oxo-3,4,11,11a-tetrahydro-1H-pyrazino[1′,2′:3,4]imidazo[1,2-c]pyrimidin-2(9H)-yl)propanoate]
6 | ≤ 10 µM | N#Cc1cc(CNc2cc3n(c(=O)n2)CC2CNC(=O)CN32)ccc1F (stereo not drawn) [Example E354, 5-(((3,9-dioxo-2,3,4,9,11,11a-hexahydro-1H-pyrazino[1′,2′:3,4]imidazo[1,2-c]pyrimidin-7-yl)amino)methyl)-2-fluorobenzonitrile, trifluoroacetic acid salt]
7 | ≤ 10 µM | N#Cc1cc(CCOc2cc3n(c(=O)n2)CC2(CCOCC2)N3)ccc1F [Example 404, 2-Fluoro-5-(2-((5-oxo-2′,3,3′,5,5′,6′-hexahydro-1H-spiro[imidazo[1,2-c]pyrimidine-2,4′-pyran]-7-yl)oxy)ethyl)benzonitrile]
8 | ≤ 10 µM | N#Cc1cc(COc2cc3n(c(=O)n2)C[C@H]2C[C@@H](N)CN32)ccc1F [Example E389, 5-((((7R,8aR)-7-Amino-1-oxo-1,6,7,8,8a,9-hexahydropyrrolo[1′,2′:3,4]imidazo[1,2-c]pyrimidin-3-yl)oxy)methyl)-2-fluorobenzonitrile]
9 | ≤ 10 µM | Cc1ccc(Oc2c(F)cc(COc3cc4n(c(=O)n3)C[C@@H]3C[C@H](O)CN43)cc2F)cn1 [Example E385, (7S,8aS)-3-((3,5-Difluoro-4-((6-methylpyridin-3-yl)oxy)benzyl)oxy)-7-hydroxy-7,8,8a,9-tetrahydropyrrolo[1′,2′:3,4]imidazo[1,2-c]pyrimidin-1(6H)-one]
10 | ≤ 10 µM | O=c1nc(OCc2cccc(F)c2F)cc2n1CC1CSCCN21 (stereo not drawn) [Example E361, 7-((2,3-Difluorobenzyl)oxy)-3,4,11,11a-tetrahydropyrimido[6′,1′:2,3]imidazo[5,1-c][1,4] thiazin-9(1H)-one]
11 | ≤ 10 µM | O=c1nc(NCc2ccc(F)c(F)c2)cc2n1CC1CSCCN21 (stereo not drawn) [Example E374, 7-((3,4-Difluorobenzyl)amino)-3,4,11,11a-tetrahydropyrimido[6′,1′:2,3]imidazo[5,1-c][1,4]thiazin-9(1H)-one]
12 | ≤ 10 µM | COc1ccc(COc2cc3n(c(=O)n2)CC2CNCCN32)cc1C#N (stereo not drawn) [Example E278, 2-Methoxy-5-(((9-oxo-2,3,4,9,11,11a-hexahydro-1H-pyrazino[1′,2′:3,4]imidazo [1,2-c]pyrimidin-7-yl)oxy)methyl) benzonitrile]
13 | ≤ 10 µM | O=C(O)C(C1CC1)N1CCN2c3cc(OCc4ccc(F)c(F)c4)nc(=O)n3CC2C1 (stereo not drawn) [Example E328, 2-Cyclopropyl-2-(7-((3,4-difluorobenzyl)oxy)-9-oxo-3,4,11,11a-tetrahydro-1H-pyrazino[1′,2′:3,4]imidazo[1,2-c]pyrimidin-2(9H)-yl)acetic acid, trifluoroacetic acid Salt]
14 | ≤ 10 µM | O=c1nc(OCc2cccc(F)c2F)cc2n1CC1C[S+]([O-])CCN21 (stereo not drawn) [Example E362, 7-((2,3-Difluorobenzyl)oxy)-3,4,11,11a-tetrahydropyrimido[6′,1′:2,3]imidazo[5,1-c][1,4] thiazin-9(1H)-one 2-oxide]
15 | ≤ 10 µM | O=C1CN2c3cc(OCc4cccc(F)c4F)nc(=O)n3CC2CN1 (stereo not drawn) [Example E348, 7-((2,3-Difluorobenzyl)oxy)-11,11a-dihydro-1H-pyrazino[1′,2′:3,4]imidazo[1,2-c]pyrimidine-3,9(2H,4H)-dione]
16 | ≤ 10 µM | N#Cc1cc(COc2ccc(COc3cc4n(c(=O)n3)CC3CNC(=O)CN43)cc2C#N)ccc1F (stereo not drawn) [Example E350, 5-((2-cyano-4-(((3,9-dioxo-2,3,4,9,11,11a-hexahydro-1H-pyrazino[1′,2′:3,4]imidazo[1,2-c]pyrimidin-7-yl)oxy)methyl)phenoxy)methyl)-2-fluorobenzonitrile]
17 | ≤ 10 µM | N#Cc1cc(COc2cc3n(c(=O)n2)C[C@H]2CC(O)CN32)ccc1F (stereo in doubt) [Example E381, 2-Fluoro-5-((((7R,8aR)-7-hydroxy-1-oxo-1,6,7,8,8a,9-hexahydropyrrolo[1′,2′:3,4]imidazo[1,2-c]pyrimidin-3-yl)oxy)methyl)benzonitrile]
18 | ≤ 10 µM | O=c1nc(NCc2ccc(F)c(F)c2)cc2n1CC1C[S+]([O-])CCN21 (stereo not drawn) [Example E375, 7-((3,4-Difluorobenzyl)amino)-3,4,11,11a-tetrahydropyrimido[6′,1′:2,3]imidazo[5,1-c][1,4]thiazin-9(1H)-one 2-oxide]
19 | ≤ 10 µM | Cc1ccc(COc2cc3n(c(=O)n2)CC2CNCCN32)cc1C#N (stereo not drawn) [Example E271, 2-Methyl-5-(((9-oxo-2,3,4,9,11,11a-hexahydro-1H-pyrazino[1′,2′:3,4]imidazo [1,2-c]pyrimidin-7-yl)oxy)methyl) benzonitrile]
20 | ≤ 10 µM | CC(=O)N1CCN2c3cc(NCc4ccc(F)c(C#N)c4)nc(=O)n3CC2C1 (stereo not drawn) [Example E314, 5-(((2-Acetyl-9-oxo-2,3,4,9,11,11a-hexahydro-1H-pyrazino[1′,2′:3,4]imidazo[1,2-c]pyrimidin-7-yl)amino)methyl)-2-fluorobenzonitrile]
21 | ≤ 10 µM | O=c1nc(OCc2cccc(F)c2F)cc2n1CC1CS(=O)(=O)CCN21 (stereo not drawn) [Example E363, 7-((2,3-Difluorobenzyl)oxy)-3,4,11,11a-tetrahydropyrimido[6′,1′:2,3]imidazo[5,1-c][1,4] thiazin-9(1H)-one 2,2-dioxide]
22 | ≤ 0.1 µM | N#Cc1cc(COc2cc3n(c(=O)n2)CC2CNCCN32)ccc1OC1CCCC1 (stereo not drawn) [Example E317, 2-(Cyclopentyloxy)-5-(((9-oxo-2,3,4,9,11,11a-hexahydro-1H-pyrazino[1,2′:3,4]imidazo[1,2-c]pyrimidin-7-yl)oxy)methyl)benzonitrile]

Row | SMILES | IC50
23 | O=c1nc(OCc2ccc(F)c(Br)c2)cc2n1CC1CNCCN21 (stereo not drawn) [Example E276, 7-((3-Bromo-4-fluorobenzyl)oxy)-3,4,11,11a-tetrahydro-1H-pyrazino[1′,2′:3,4] imidazo [1,2-c]pyrimidin-9(2H)-one] | ≤ 10 µM
24 | O=c1nc(OCc2ccc(Cl)c(Br)c2)cc2n1CC1CNCCN21 (stereo not drawn) [Example E275, 7-((3-Bromo-4-chlorobenzyl)oxy)-3,4,11,11a-tetrahydro-1H-pyrazino[1′,2′:3,4] imidazo [1,2-c]pyrimidin-9(2H)-one] | ≤ 10 µM
25 | N#Cc1cc(COc2cc3n(c(=O)n2)CC2CNCCN32)ccc1OC1CCC1 (stereo not drawn) [Example E316, 2-Cyclobutoxy-5-(((9-oxo-2,3,4,9,11,11a-hexahydro-1H-pyrazino[1′,2′:3,4]imidazo[1,2-c]pyrimidin-7-yl)oxy)methyl)benzonitrile] | ≤ 10 µM
26 | O=c1nc(OCc2ccc(F)c(Cl)c2)cc2n1CC1CNCCN21 (stereo not drawn) [Example E277, 7-((3-Chloro-4-fluorobenzyl)oxy)-3,4,11,11a-tetrahydro-1H-pyrazino[1′,2′:3,4] imidazo [1,2-c]pyrimidin-9(2H)-one] | ≤ 10 µM
27 | O=c1nc(OCc2cccc(F)c2F)cc2n1CC1CNCCN21 (stereo not drawn) [Example E268, 7-((2,3-Difluorobenzyl)oxy)-3,4,11,11a-tetrahydro-1H-pyrazino[1′,2′:3,4] imidazo [1,2-c]pyrimidin-9(2H)-one] | ≤ 10 µM
